Legend:
[1] = system: mouse; assay: Determination of LD50 in the mouse by intravenous administration; format: in vivo; details: male and female mice, strain Crl:CD1(ICR)BR
From the text: Determination of LD50 in the Mouse by Intravenous Administration of the Compounds of the Present Invention
In table II are reported, as non-limiting examples, the LD50 values for compounds A and B of the present invention, in comparison with GdCl3 and with Gd/DTPA neutralized with N-methylglucamine.
*male and female mice were used, Strain: Crl:CD1(ICR)BR

[2] = Determination of relaxivity (MINISPEC PC 120 BRUKER, 20 MHz proton, 39° C.); format: physicochemical; details: pH 7.3, aqueous solvent, 0-5 mM; for Transverse relaxivity (R2): Carr, Purcell, Meiboom and Gill sequence; for Longitudinal relaxivity (R1): Inversion Recovery
Description: Determination of the Relaxivity of the Compounds of the Present Invention
A) Apparatus: […] PC 120 (BRUKER)
B) Observation frequency:
39° C., with pre-thermostatization
of the NMR test tube for 10 min
at the operative temperature
in the range from 0 to 5 mM with the
following specific measuring points:
F) pH: 7.3, to be checked again
potentiometrically before the
relaxation measurement.
Longitudinal relaxivity (R1) measurements were calculated using the "Inversion Recovery" sequence with an 8 point minimum and a 3 parameter fit, according to the program provided for the […] 120 BRUKER instrument, by which measurements were taken.
Transverse relaxivity (R2) measurements were calculated using the sequence of Carr, Purcell, Meiboom and Gill, according to the program provided for the […] 120 BRUKER instrument, by means of which measurements were taken, adjusting the apparatus in such a way as to observe the decay of the signal to about 1/3 of the starting value, with a score number higher or equal to 10 and a 2 parameter fit.

[3] = background statement in words; cited from earlier work

Row | Compound | LD50 in the mouse [1] | Transverse relaxivity (R2) [2] | Longitudinal relaxivity (R1) [2] | removal from the blood stream and from the lesions of the tissues under examination [3]
1 | D(-)-N-methylglucamine salt of the Gd^(3+) /2-[1,4,7,10-tetraaza-4,7,10-tri(carboxymethyl)-cyclododecane-1-yl]-3-benzyloxypropionic acid complex | 8.8 (7.79-9.94) mmol/kg | 5.67 ± 0.02 mM/s | 4.15 ± 0.01 mM/s | 
2 | CNC[C@H](O)[C@@H](O)[C@H](O)[C@H](O)CO.CNC[C@H](O)[C@@H](O)[C@H](O)[C@H](O)CO.O=C([O-])CN(CCN(CC(=O)[O-])CC(=O)O)CCN(CC(=O)[O-])CC(=O)O.[Gd+3] [Gd/DTPA, reference compound] | 4.8 (4.47-5.16) mmol/kg | 5.15 ± 0.02 mM/s | 4.08 ± 0.01 mM/s | too quickly removed from the blood stream and from the lesions of the tissues under examination
3 | [Cl][Gd]([Cl])[Cl] [GdCl3, reference compound] | 0.28 (0.24-0.32) mmol/kg |  |  | 
4 | D(-)-N-methylglucamine salt of Gd^(3+) /2-[1,4,7,10-tetraaza-4,7,10-tri(carboxymethyl)-cyclododecane-1-yl]-3-hydroxypropionic acid complex | 13.1 (12.2-14.1) mmol/kg | 5.06 ± 0.01 mM/s | 3.72 ± 0.01 mM/s | 
